Biological target: T1, human MDM2 (GST-hMDM2 1-188), interaction with biotinylated-p53 (1-83) (Homo sapiens, UniProt Q00987)
T1 construct: Amino acid residues 1-188 of human MDM2 were expressed; made in house; host or cells: Escherichia coli
Assay: improved HTRF assay (HTRF2 assay), inhibition of HDM2-p53 interaction
Format: binding
Settings: 0.2 nM GST-hMDM2, 0.5 nM biotinylated-p53, 100 mM KF
How it was run: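 GST-hMDM2 preincubated 20 min at RT with serially diluted compound, then biotinylated p53 (1-83, E. coli) added for 60 min. Detection with SA-XLent, anti-GST cryptate and KF, equilibrated >4 h; final DMSO 2%. TR-FRET read; % inhibition calculated relative to nutlin-3.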

T1 sequence (Q00987 1-188): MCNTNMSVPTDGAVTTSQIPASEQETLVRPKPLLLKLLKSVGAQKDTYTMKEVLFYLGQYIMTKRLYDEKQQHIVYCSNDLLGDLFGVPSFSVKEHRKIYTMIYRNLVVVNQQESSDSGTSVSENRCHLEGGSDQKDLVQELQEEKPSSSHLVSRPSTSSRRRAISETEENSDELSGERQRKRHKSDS

Row | Molecule | IC50
1 | CC(C)(O)CS(=O)(=O)C[C@H](C1CC1)N1C(=O)[C@@H](CC(=O)O)O[C@H](c2cccc(Cl)c2)[C@H]1c1ccc(Cl)cc1 (single isomer, unassigned) [Example 289, 2-((2R,5R,6R)-6-(3-Chlorophenyl)-5-(4-chlorophenyl)-4-((S)-1-cyclopropyl-2-((2-hydroxy-2-methylpropyl)sulfonyl)ethyl)-3-oxomorpholin-2-yl)acetic acid or 2-((2S,5R,6R)-6-(3-chlorophenyl)-5-(4-chlorophenyl)-4-((S)-1-cyclopropyl-2-((2-hydroxy-2-methylpropyl)sulfonyl)ethyl)-3-oxomorpholin-2-yl)acetic acid] | 2 nM
2 | CC(C)[C@@H](CN(c1ccccc1F)S(=O)(=O)C(C)(C)C)N1C(=O)[C@@H](CC(=O)O)O[C@H](c2cccc(Cl)c2)[C@H]1c1ccc(Cl)cc1 (single isomer, unassigned) [Example 201, 2-((2R,5R,6R)-6-(3-chlorophenyl)-5-(4-chlorophenyl)-4-((S)-1-(N-(2-fluorophenyl)-2-methylpropan-2-ylsulfonamido)-3-methylbutan-2-yl)-3-oxomorpholin-2-yl)acetic acid or 2-((2S,5R,6R)-6-(3-chlorophenyl)-5-(4-chlorophenyl)-4-((S)-1-(N-(2-fluorophenyl)-2-methylpropan-2-ylsulfonamido)-3-methylbutan-2-yl)-3-oxomorpholin-2-yl)acetic acid] | 2 nM
3 | CC(C)(C)S(=O)(=O)C[C@H](C1CC1)N1C(=O)[C@@H](CC(N)=O)O[C@H](c2cccc(Cl)c2)[C@H]1c1ccc(Cl)cc1 (single isomer, unassigned) [Example 356, 2-((2R,5R,6R)-4-((S)-2-(tert-Butylsulfonyl)-1-cyclopropylethyl)-6-(3-chlorophenyl)-5-(4-chlorophenyl)-3-oxomorpholin-2-yl)acetamide or 2-((2S,5R,6R)-4-((S)-2-(tert-butylsulfonyl)-1-cyclopropylethyl)-6-(3-chlorophenyl)-5-(4-chlorophenyl)-3-oxomorpholin-2-yl)acetamide] | 10 nM
4 | CC[C@@H](CS(=O)(=O)C(C)(C)C)N1C(=O)[C@H](CC(=O)OC)O[C@H](c2cccc(Cl)c2)[C@H]1c1ccc(Cl)cc1 [Example 150, Methyl 2-((2S,5R,6R)-4-((S)-1-(tert-butylsulfonyl)butan-2-yl)-6-(3-chlorophenyl)-5-(4-chlorophenyl)-3-oxomorpholin-2-yl)acetate] | 21 nM
5 | CC(C)(C)SC[C@H](C1CC1)N1C(=O)[C@@H](CC(=O)O)O[C@H](c2ccc(Br)c(Cl)c2)[C@H]1c1ccc(Cl)cc1 (single isomer, unassigned) [Example 322, 2-((2R,5R,6R)-6-(4-Bromo-3-chlorophenyl)-4-((S)-2-(tert-butylthio)-1-cyclopropylethyl)-5-(4-chlorophenyl)-3-oxomorpholin-2-yl)acetic acid or 2-((2S,5R,6R)-6-(4-bromo-3-chlorophenyl)-4-((S)-2-(tert-butylthio)-1-cyclopropylethyl)-5-(4-chlorophenyl)-3-oxomorpholin-2-yl)acetic acid] | 51 nM
6 | CC[C@@H](CS(=O)(=O)C(C)(C)C)N1C(=O)[C@@H](CC(=O)O)O[C@H](c2cccc(Cl)c2)[C@H]1c1ccc(Cl)c(F)c1 (single isomer, unassigned) [Example 182, 2-((2R,5R,6R)-4-((S)-1-(tert-butylsulfonyl)butan-2-yl)-5-(4-chloro-3-fluorophenyl)-6-(3-chlorophenyl)-3-oxomorpholin-2-yl)acetic acid or 2-((2S,5R,6R)-4-((S)-1-(tert-butylsulfonyl)butan-2-yl)-5-(4-chloro-3-fluorophenyl)-6-(3-chlorophenyl)-3-oxomorpholin-2-yl)acetic acid] | 4 nM
7 | 2-((2R,5R,6R)-6-(3-Chlorophenyl)-5-(4-chlorophenyl)-4-((3S,5R)-5-hydroxyhexan-3-yl)-3-oxomorpholin-2-yl)acetic acid or 2-((2R,5R,6R)-6-(3-Chlorophenyl)-5-(4-chlorophenyl)-4-((3S,5S)-5-hydroxyhexan-3-yl)-3-oxomorpholin-2-yl)acetic acid [Example 127] | 34 nM
8 | C[C@@H](CS(=O)(=O)C(C)(C)C)N1C(=O)[C@@H](CC(=O)N(C)C)O[C@H](c2cccc(Cl)c2)[C@H]1c1ccc(Cl)cc1 (single isomer, unassigned) [Example 232, 2-((2R,5R,6R)-4-((S)-1-(tert-butylsulfonyl)propan-2-yl)-6-(3-chlorophenyl)-5-(4-chlorophenyl)-3-oxomorpholin-2-yl)-N,N-dimethylacetamide or 2-((2S,5R,6R)-4-((S)-1-(tert-butylsulfonyl)propan-2-yl)-6-(3-chlorophenyl)-5-(4-chlorophenyl)-3-oxomorpholin-2-yl)-N,N-dimethylacetamide] | 31 nM
9 | C[C@H]1CCCN1S(=O)(=O)C[C@H](C1CC1)N1C(=O)[C@@H](CC(=O)O)O[C@H](c2cccc(Cl)c2)[C@H]1c1ccc(Cl)cc1 (single isomer, unassigned) [Example 296, 2-((2R,5R,6R)-6-(3-Chlorophenyl)-5-(4-chlorophenyl)-4-((S)-1-cyclopropyl-2-(((S)-2-methylpyrrolidin-1-yl)sulfonyl)ethyl)-3-oxomorpholin-2-yl)acetic acid or 2-((2S,5R,6R)-6-(3-chlorophenyl)-5-(4-chlorophenyl)-4-((S)-1-cyclopropyl-2-(((S)-2-methylpyrrolidin-1-yl)sulfonyl)ethyl)-3-oxomorpholin-2-yl)acetic acid] | < 1 nM
10 | CC[C@@H](CN(c1ccccc1F)S(=O)(=O)C1CC1)N1C(=O)[C@@H](CC(=O)NS(=O)(=O)C(C)C)O[C@H](c2cccc(Cl)c2)[C@H]1c1ccc(Cl)cc1 (single isomer, unassigned) [Example 259, 2-((2R,5R,6R)-6-(3-chlorophenyl)-5-(4-chlorophenyl)-4-((S)-1-(N-(2-fluorophenyl)cyclopropanesulfonamido)butan-2-yl)-3-oxomorpholin-2-yl)-N-(isopropylsulfonyl)acetamide or 2-((2S,5R,6R)-6-(3-chlorophenyl)-5-(4-chlorophenyl)-4-((S)-1-(N-(2-fluorophenyl)cyclopropanesulfonamido)butan-2-yl)-3-oxomorpholin-2-yl)-N-(isopropylsulfonyl)acetamide] | 1 nM
11 | CC1(C)CCCN1S(=O)(=O)C[C@H](C1CC1)N1C(=O)[C@@H](CC(=O)O)O[C@H](c2cccc(Cl)c2)[C@H]1c1ccc(Cl)cc1 (single isomer, unassigned) [Example 307, 2-((2R,5R,6R)-6-(3-Chlorophenyl)-5-(4-chlorophenyl)-4-((S)-1-cyclopropyl-2-((2,2-dimethylpyrrolidin-1-yl)sulfonyl)ethyl)-3-oxomorpholin-2-yl)acetic acid or 2-((2R,5R,6R)-6-(3-chlorophenyl)-5-(4-chlorophenyl)-4-((S)-1-cyclopropyl-2-((2,2-dimethylpyrrolidin-1-yl)sulfonyl)ethyl)-3-oxomorpholin-2-yl)acetic acid] | < 1 nM
12 | 2-((2R,5R,6R)-6-(3-chlorophenyl)-5-(4-chlorophenyl)-4-((S)-1-(N-(2-cyanophenyl)cyclopropanesulfonamido)butan-2-yl)-3-oxomorpholin-2-yl)acetic acid or 2-((2S,5R,6R)-6-(3-chlorophenyl)-5-(4-chlorophenyl)-4-((S)-1-(N-(2-cyanophenyl)cyclopropanesulfonamido)butan-2-yl)-3-oxomorpholin-2-yl)acetic acid [Example 207] | < 1 nM

Source: patent US9376425B2, “Heterocyclic compounds as MDM2 inhibitors for the treatment of cancer” (AMGEN INC., priority 2011, dated 2016)
